Legend:
β-amyloid plaques = assay: Plaque specificity of dye compounds; assay type: binding
Enter CNS (BBB) = conditions: in vivo
[1] = Near-IR spectra of dye compounds; assay type: physicochemical

SMILES | Plaque specificity (β-amyloid plaques) | Enter CNS (BBB) (Enter CNS (BBB)) | Near-IR spectra [1]
CC1(C)C(/C=C/c2ccc(-c3ccc(-c4ccc(O)cc4)s3)s2)=[N+](CCCS(=O)(=O)[O-])c2ccccc21 [NIAD1] | Yes | Yes/No | Yes
CN(C)c1ccc(-c2ccc(-c3ccc(C=C4C(=C(C#N)C#N)c5ccccc5C4=C(C#N)C#N)s3)s2)cc1 [NIAD7] | Yes | Yes | No
C[N+]1=C(/C=C/c2ccc(-c3ccc(-c4ccc(O)cc4)s3)s2)C(C)(C)c2ccccc21.[Cl-] [NIAD3] | Yes | No | Yes
CN(C)c1ccc(-c2sc(-c3ccc(C=C(C#N)C#N)s3)c3ccccc23)cc1 [NIAD6] | Yes | No | Yes

Source: patent US20090087376A1, “Heterocyclic Dye Compounds For In Vivo Imaging And Diagnosis Of Alzheimer's Disease” (The General Hospital Corporation, priority 2004, published 2009)
